Entries after “also recorded” stand apart in the source; their conditions may differ.
Legend:
[1] = tested on: CYP3A4; settings: single dose capivasertib 80 mg; cited from earlier work
[2] = dose range 80–800 mg; cited from earlier work
[3] = Model simulations and covariate assessment; design: species or system patients with advanced or metastatic solid tumours; settings: for decrease of CL/F after approximately 120 h: multiple doses
[4] = tested on: ROCK1/2; assay: In vitro cellular kinase inhibition: ROCK1/2; type: cell-based
[5] = tested on: CYP3A; settings: capivasertib 400 mg b.i.d., intermittent schedule; cited from earlier work
[6] = healthy subjects; cited from earlier work
[7] = Population pharmacokinetic model of capivasertib plasma concentrations; type: in vivo, patients with advanced or metastatic solid tumours
[8] = 400 mg b.i.d. (4/3) after multiple doses
[9] = body weight 47 kg vs 67 kg reference

In the case of NC1(C(=O)N[C@@H](CCO)c2ccc(Cl)cc2)CCN(c2nc[nH]c3nccc2-3)CC1 [capivasertib], the “increase of capivasertib AUC by itraconazole” value [1] is listed as 95%, the “dose proportionality of plasma exposure” value [2] is listed as “approximately dose proportional” and the “terminal half-life (t½)” value [2] is listed as “approximately 10 hours”. The “terminal half-life (t½), range” value [2] was 7 to 15 h, the “median AUC12h,ss” value [3, 8] was 7730 ng·h/mL and the “median Cmax,ss” value [3, 8] was 1340 ng/mL. The “decrease of CL/F after approximately 120 h” value ([3]; 400 mg b.i.d.) was 18%, the “decrease of CL/F after approximately 120 h” value ([3]; 480 mg b.i.d.) was 22% and the “dose proportionality of AUC and Cmax” value ([3]; 80–480 mg after multiple doses) was “proportional; also recorded: approximately proportionally”. For the same compound, the “dose proportionality of AUC and Cmax” value ([3]; beyond 480 mg after multiple doses) was “more than proportional; also recorded: more than proportionally”, the “increase in AUC12h,ss” value [3, 9] was 14% and the “increase in Cmax,ss” value [3, 9] was 14%. For the same compound, the “reduction in CLss/F” value [3, 9] was 12%, the “predicted impact of significant covariates on exposure to capivasertib” value ([3]; body weight, dose, paclitaxel, food, formulation) was < 20% and the “increase in CLss/F” value ([3]; concomitant paclitaxel vs no paclitaxel) was 20%. For the same compound, the “time after which steady state is achieved” value ([3]; simulations, three schedules, different dose levels) was “approximately 120 h”, the “inhibition of ROCK-mediated phosphorylation of cofilin” value [4] was “not effective” and the “increase in midazolam exposure” value [5] was “up to 75%”. The “renal clearance as share of total clearance” value [6] was 21%, the “effective t½” value ([7]; 400 mg b.i.d. (4/3)) was 8.34 h and the “apparent volume of distribution at steady state” value ([7]; at 400 mg) was 255.6 L. For the same compound, the “Lag1_tab absorption lag time for tablets” value ([7]; final model estimate, semi-fasted or fed) was 0.21 h, the “fraction of dose absorbed by zero-order process” value ([7]; oral) was 20% and the “fraction of dose absorbed using the first-order mechanism” value ([7]; oral) was 80%. For the same compound, the “time to maximum concentration” value ([7]; slight variations with dose level, body weight, food status) was 1.4 h.

From PMC11343776 (Clinical Pharmacokinetics, 2024)
